The source of these data is paper PMC3586934 (Anesthesiology, 2012).

The conditions of data set [1]: both, human, in vivo, iv.
The test system of the next data set is CYP3A4. Conditions: cited from earlier work.
The next data set is described as follows: Intravenous. Conditions: for Cmax / AUC(0-t) / AUC(0-inf): both, human, in vivo; for AUC(0-t): AUC0-96, oral methadone; for AUC(0-inf): AUC0-∞; for AUC(0-inf) / Foral: oral methadone.
The next data set concerns CYP2B6. Conditions: cited from earlier work.
The conditions of data set [2]: cited from earlier work.
The test system of the next data set is CYP3A. Conditions: human, in vivo; cited from earlier work.
Data set [3] concerns P-gp. Conditions: cited from earlier work.
The subject of data set [4] is P-gp. The settings on record: rats; cited from earlier work.
The conditions of data set [5]: cited from earlier work. The source holds these as a separate data set.
Another data set concerns healthy volunteers. The settings on record: 6.0 mg intravenous plus 11.0 mg oral methadone HCl.

Where two headings read alike, the source gives them in different places. Some results are limits rather than exact numbers.

In the case of `CCC(=O)C(C[C@H](C)N(C)C)(c1ccccc1)c1ccccc1` [S-methadone], the EH in [1] was determined as 0.06 ± 0.02. Also, the Km with CYP3A4 is 149 µM; in the data set with CYP2B6 it was 16 µM. The maximum concentration (Cmax) worked out at 83 ± 39 ng/mL in “Intravenous” (iv, 6 mg) and 30 ± 10 ng/mL in the data set “Intravenous” (po, 11 mg). In addition, the AUC(0-t) was determined as 688 ± 169 ng·h/mL in “Intravenous” (po, 11 mg, control) and 685 ± 131 ng·h/mL in the data set “Intravenous” (po, after indinavir). Further, the AUC(0-inf) amounted to 780 ± 200 ng·h/mL in the data set “Intravenous” (po, 11 mg, control) and 805 ± 194 ng·h/mL in “Intravenous” (po, after indinavir). Besides, the figures for the Foral in the data set “Intravenous” (after indinavir) and in “Intravenous” (control) were 0.90 ± 0.11 and 0.87 ± 0.10, respectively.

On to `C[C@@H](c1ncncc1F)[C@](O)(Cn1cncn1)c1ccc(F)cc1F` [voriconazole], for which, in data set [2], the “R-methadone AUC, increase” value is given as 47% and the “S-methadone AUC, increase” value is listed as 103%.

`CC(C)c1nc(CN(C)C(=O)N[C@H](C(=O)N[C@@H](Cc2ccccc2)C[C@H](O)[C@H](Cc2ccccc2)NC(=O)OCc2cncs2)C(C)C)cs1` [ritonavir]: the “methadone clearance, change” value in [2] was “doubled”.

For `CO[C@H]1/C=C/O[C@@]2(C)Oc3c(C)c(O)c4c(O)c(c(/C=N/N5CCN(C)CC5)c(O)c4c3C2=O)NC(=O)/C(C)=C\C=C\[C@H](C)[C@H](O)[C@@H](C)[C@@H](O)[C@@H](C)[C@H](OC(C)=O)[C@@H]1C` [rifampin], the “methadone clearance, change” value in data set [2] is listed as “doubled”.

On to `Cc1c(O)cccc1C(=O)N[C@@H](CSc1ccccc1)[C@H](O)CN1C[C@H]2CCCC[C@H]2C[C@H]1C(=O)NC(C)(C)C` [nelfinavir], for which, in the data set with CYP3A, the “inhibition of first-pass CYP3A” value is on record as over 75% and the “inhibition of hepatic CYP3A” value was 50%. Also, the “fexofenadine Cmax, change” value in the data set on P-gp [3] was “decreased”.

On to `O=C1Nc2ccc(Cl)cc2[C@@](C#CC2CC2)(C(F)(F)F)O1` [efavirenz], for which the “methadone clearance, change” value in data set [2] is on record as “doubled”.

For the molecule `C/C=C/C[C@@H](C)C(=O)[C@H]1C(=O)N[C@@H](C(C)C)C(=O)N(C)CC(=O)N(C)[C@@H](CC(C)C)C(=O)N[C@@H](C(C)C)C(=O)N(C)[C@@H](CC(C)C)C(=O)N[C@@H](C)C(=O)N[C@H](C)C(=O)N(C)[C@@H](CC(C)C)C(=O)N(C)[C@@H](CC(C)C)C(=O)N(C)[C@@H](C(C)C)C(=O)N1C` [valspodar], the “oral methadone bioavailability, change” value in the data set on P-gp [4] is recorded as “increased”.

As for `CCC(=O)C(CC(C)N(C)C)(c1ccccc1)c1ccccc1` (stereo not shown) [methadone], in data set [5], the FG predicted is on record as 0.97 and the “FG, average in several investigations” value was 0.96. Further, in data set [5] (intravenous methadone), the “EH, average” value is reported as 0.09 and the fhep is 0.76. For the same molecule, in the data set with healthy volunteers (after indinavir), the “AUEC0-∞” value is 96± 56 mm•hr and the Maximum miosis is 3.6 ± 1.0 mm. Also, in the data set on healthy volunteers (control), the “AUEC0-∞” value was 87 ± 66 mm•hr and the Maximum miosis came out at 3.6 ± 1.0 mm.
